Assay results: article PMC2970562, “High-Affinity Inhibitors of Human NAD^+-Dependent 15-Hydroxyprostaglandin Dehydrogenase: Mechanisms of Inhibition and Structure-Activity Relationships” (PLoS ONE, 2010)

The molecules below were run against T1, human 15-PGDH (Homo sapiens, UniProt P15428) (assay: Substrate (PGE2) and cofactor (NAD+) titrations, mechanism of action, global fitting). Settings: PGE2, absence of inhibitor.
T1 construct: comprising residues 3–256 of the human HPGD gene (GenBank identifier: 1203982); His6 (GHHHHHH, behind the TEV site) (C, cleaved yes); made in house; host or cells: E. coli BL21(DE3)-R3
T1 sequence (P15428 3-256): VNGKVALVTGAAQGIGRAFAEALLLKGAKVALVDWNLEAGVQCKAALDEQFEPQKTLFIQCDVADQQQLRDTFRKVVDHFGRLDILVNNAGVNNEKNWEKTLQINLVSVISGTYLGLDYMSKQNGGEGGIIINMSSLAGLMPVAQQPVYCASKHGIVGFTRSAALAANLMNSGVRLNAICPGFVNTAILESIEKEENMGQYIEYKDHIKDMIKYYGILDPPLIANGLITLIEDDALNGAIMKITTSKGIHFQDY
Format: biochemical
Procedure: Kinetic studies were performed in 100 mM Tris buffer pH 8.0, containing 0.01% Tween-20 and 10 nM 15-PGDH enzyme. […] All inhibitor compounds were dissolved in 10% (v/v) DMSO at varying concentrations from which they were applied at 1∶5 ratio (resulting in a final concentration of 2% (v/v) DMSO in all assays). For each experiment an aliquot of purified enzyme was thawed freshly and pre-diluted to 10 µM in buffer I (5 mM Tris/HCl, pH 8.0, 150 mM NaCl, 0.01% Tween-20). All experiments were performed in white 384-well PCR microplates (Bio-Rad Laboratories, Inc.) in final assay volumes of 20 µL. Twelve-point compound titrations were set up from serially diluted stock solutions in 10% (v/v) DMSO. […] The initial rates recorded in compound titrations were plotted against -log[compound], and non-linear regression (Levenberg-Marquardt) fitting of the dose-response curve to the Hill equation [47] was performed to derive the IC50, using PRISM 5.0 (GraphPad Software, Inc.). For substrate/cofactor titrations, curves with initial rates plotted against the concentration of substrate or cofactor were fitted to the Michaelis-Menten equation, to derive maximal activities, V max, and Michaelis constants, K m. Fitting qualities were judged from the goodness of fit (R^2>0.98).
With `CCCCC[C@H](O)/C=C/[C@H]1[C@H](O)CC(=O)[C@@H]1C/C=C\CCCC(=O)O` [PGE2, 15-hydroxyprostaglandin type-E2, reference compound] the “catalytic efficiency, k cat/K m” value was 2.5·10^6.

Same assay, conditions: cofactor, absence of inhibitor; 30 µM PGE2
`NC(=O)c1ccc[n+]([C@@H]2O[C@H](COP(=O)([O-])OP(=O)(O)OC[C@H]3O[C@@H](n4cnc5c(N)ncnc54)[C@H](O)[C@@H]3O)[C@@H](O)[C@H]2O)c1` [NAD^+] was tested, and the “Titration of NAD^+ K m” value was 15.8 ± 0.9 µM, the “Titration of NAD^+ V max [µmol/(min×mg)]” value was 21.2 µmol/min/mg and the “Titration of NAD^+ k cat/K m[×10^6]” value was 0.7 ×10^6. The “Titration of NAD^+ k cat[1/sec]” value was 10.3 ± 0.1 s⁻¹.

Same assay, conditions: oxidation of PGE2, absence of inhibitor
`CCCCC[C@H](O)/C=C/[C@H]1[C@H](O)CC(=O)[C@@H]1C/C=C\CCCC(=O)O` [PGE2, 15-hydroxyprostaglandin type-E2, reference compound] was tested, and the “catalytic constant, k cat” value was “about 14 per second”.

Same assay, conditions: substrate, absence of inhibitor
`CCCCC[C@H](O)/C=C/[C@H]1[C@H](O)CC(=O)[C@@H]1C/C=C\CCCC(=O)O` [PGE2, 15-hydroxyprostaglandin type-E2, reference compound] was tested, and the “Titration of PGE2 K m” value was 5.5 ± 0.6 µM, the “Titration of PGE2 V max[µmol/(min×mg)]” value was 28.1 µmol/min/mg and the “Titration of PGE2 k cat/K m[×10^6]” value was 2.5 ×10^6. The “Titration of PGE2 k cat[1/sec]” value was 13.6 ± 0.3 s⁻¹.

Each molecule was assayed against T1, human 15-PGDH (assay: qHTS and 24-point re-test: fluorescence assay of NAD+ reduction to NADH on PGE2 oxidation (PubChem AID 894)). Settings: potency in 24-point titrations on re-test; 20 nM 15-PGDH, 1 mM NAD+, 30 µM PGE2, pH 8.0.
Format: biochemical
Procedure: The assay was miniaturized to a 4-µL volume in 1536-well format: enzyme (3 µL) was dispensed first, followed by a pintool transfer of library compounds dissolved in DMSO. After equilibration, a substrate dispense (1 µL) initiated the enzymatic reaction (see Materials and Methods, for detailed protocol description). […] Hits associated with low-efficacy (<40% maximum inhibition), incomplete curves, as well as those displaying only a single-point inhibition at the top concentration tested were eliminated from further consideration. Similarly, the collection of real-time kinetic data allowed the autofluorescence of each compound to be evaluated by comparing the initial fluorescence read at top concentration with the mean value of uninhibited assay controls: compounds whose top-concentration initial well fluorescence exceeded six standard deviations over the mean were flagged as potential autofluorescent artifacts, [28] (see example in supplementary information Figure S1E). The complete screening and followup results are available in PubChem (PubChem Assay ID 894).
The enzymatic reaction was performed in 50 mM Tris-HCl pH 8.0, containing 0.01% Tween 20. […] The high-throughput screen was performed on a fully integrated robotic system (Kalypsys Inc, San Diego, CA) as described elsewhere. Library compounds, arrayed as seven-point inter-plate concentration series, were screened from the lowest (3.5 nM) to the highest (57.5 µM) concentration, with plates containing DMSO only, serving to note any systematic drifts in the signal, interspersed evenly throughout the screen (approximately every 50 plates). Briefly, 3 µL of reagents were dispensed into 1536-well Greiner black solid-bottom assay plates using integrated nanoliter solenoid-technology dispensers. Compounds and controls (23 nL) were transferred via Kalypsys pintool equipped with 1,536-pin array (10-nL slotted pins; V&P Scientific, Palo Alto, CA). After a 15-minute incubation (to allow for interaction between compound and enzyme), a 1-µL substrate addition step initiated the reaction. Kinetic data were collected on a ViewLux High-throughput CCD imager (Perkin-Elmer) equipped with standard UV fluorescence optics (exc. 340 nm, em. 450 nm).
Starting fluorescence intensity and the change in fluorescence over the two-minute initial rate period were recorded for every well. Screening data were normalized against no-enzyme (64 wells, columns 3 and 4) and no-compound (32 wells located in column 1) controls, and concentration-response relationships were derived as described previously. A four-parameter Hill equation [47] was fitted to the concentration-response data using publicly available algorithms (http://www.ncgc.nih.gov/pub/openhts/curvefit/).
For `COc1ccc(N2CCN(C(=O)c3ccc(CSc4ccccc4)cc3)CC2)cc1` [Compound 6], the “qHTS IC50 [nM]” value was “Inactive”. In the case of `Fc1ccccc1-c1nnc(SCCc2ccncc2)n1C1CC1` [Compound 24], the “qHTS IC50 [nM]” value is reported as “Inactive”. For `COCCNC(=O)C1CSC(c2ccccc2)N1C(=O)c1ccc(OC)c(OC)c1` (centres unmarked) [Compound 28], the “qHTS IC50 [nM]” value was “inactive”. With `CCNC(=S)NN=Cc1cccn1-c1ccccc1` [Compound 33] the “qHTS IC50 [nM]” value was “inactive”. For `Cc1c(Cl)cccc1NC(=O)CNC(=O)c1cncn1-c1ccc(F)cc1` [Compound 38], the “qHTS IC50 [nM]” value was “Inactive”. With `CC(C)(C)c1ccc(C(=O)O/N=C(\N)c2ccc(Cl)cc2)cc1` [Compound 39] the “qHTS IC50 [nM]” value was “inactive”. With `Cc1ccc2nc(SCC(=O)N3CCCC[C@@H]3C)c(C#N)cc2c1` [Compound 49] the “qHTS IC50 [nM]” value was “Inactive”.

Same assay, conditions: potency in 24-point titrations on re-test; 20 nM 15-PGDH, 1 mM NAD+, 30 µM PGE2, pH 8.0; read-out: qHTS IC50
In the case of `CC(=O)Nc1ccc(NC(=O)CSc2nc3c(cc2C#N)CCC3)cc1` [Compound 10], the IC50 is reported as 282 nM. `C=C[C@@]1(C)CCCC[C@H]1CC#CCCCC` [Compound 15] gave an IC50 of 63 nM. For `COc1ccc2ccccc2c1C=C1N=C(c2ccc(C)c(C)c2)OC1=O` [Compound 19], the IC50 was 708 nM. Molecule `COC(=O)CN(C)C(=O)c1cc(Cl)c(OCC(C)C)c(OC)c1` [Compound 21] has an IC50 of 398 nM. `CC1CCN(C(=O)CCc2ccc(Oc3cc([N+](=O)[O-])cc([N+](=O)[O-])c3)cc2)CC1` [Compound 22] was tested, and the IC50 was 891 nM. `Cc1ccc(-c2nc3c4cnn(-c5cccc(Cl)c5)c4ncn3n2)cc1` [Compound 25] was tested, and the IC50 was 12600 nM. With `Cc1ccc(CN(c2ccc(C(=O)N3CCc4ccccc4C3)cc2)S(C)(=O)=O)cc1` [Compound 26] the IC50 was 11200 nM. With `COc1ccc(OC)c(C=Cc2ccc(N3C(=O)C4CC=C5C(c6cc(Br)c(O)c(OC)c6)C6=C(CC5C4C3=O)C(=O)C=C(C)C6=O)cc2)c1` (centres unmarked) [Compound 27] the IC50 was 15800 nM. Work on `O=C(CSc1n[nH]c(-c2ccccc2)n1)Nc1ncc(Br)cc1Br` [Compound 40] yielded an IC50 of 1410 nM. `COc1ccc(NC(=O)c2sccc2S(=O)(=O)N2CCCCC2)c(OC)c1` [Compound 41] was tested, and the IC50 was 5010 nM. Work on `O=C(C=Cc1ccco1)Nc1cc(Cl)c(O)c(Cl)c1` [Compound 43] yielded an IC50 of 398 nM. With `Cc1ccc2nc(Cl)c(CO)cc2c1` [Compound 46] the IC50 was 1000 nM. `Cc1ccccc1OCc1nnc(SCC(N)=O)o1` [Compound 47] gave an IC50 of 159 nM.

Same assay, conditions: re-test of qHTS hits, Figure 2; read-out: IC50 from re-testing
With `COc1ccc(N2CCN(C(=O)c3ccc(CSc4ccccc4)cc3)CC2)cc1` [Compound 6] the IC50 was over 10000 nM.

These molecules were tested against T1, human 15-PGDH (assay: Differential scanning fluorimetry (DSF), thermal stabilization). Settings: not given.
Format: binding
Procedure: A correlation between the ΔTm and the inhibitory potency has been shown in a number of protein-ligand systems, particularly for kinases [32]–[34].
Studies to assess the thermal stability of human 15-PGDH in presence of compounds were performed as described previously, with variations. Briefly, the protein was diluted to a final assay concentration of 1 µM in 100 mM Tris buffer pH 8.0, containing 0.01% Tween-20 and 1∶1000 SYPRO orange dye (Invitrogen). […] Compounds were added at a ratio of 1∶5 from appropriate stock solutions in 10% (v/v) DMSO to comprise either 50 or 250 µM final concentrations. Heat denaturation curves were recorded using a RT-PCR instrument (Mx3005p, Agilent) applying a temperature gradient of 2°C/min. […] 2.5 (ftp://ftp.sgc.ox.ac.uk/pub/biophysics) and PRISM 5.0 (GraphPad Software, Inc.).
`CCCCC[C@H](O)/C=C/[C@H]1[C@H](O)CC(=O)[C@@H]1C/C=C\CCCC(=O)O` [PGE2, 15-hydroxyprostaglandin type-E2, reference compound] was tested, and the “ΔTm in the presence of NAD+” value was 2.4 °C and the “ΔTm in the presence of NADH” value was “no stabilization”.

Same assay, conditions: in words
With `CCCCC[C@H](O)/C=C/[C@H]1[C@H](O)CC(=O)[C@@H]1C/C=C\CCCC(=O)O` [PGE2, 15-hydroxyprostaglandin type-E2, reference compound] the stabilization without cofactor was “failed to stabilize”.

Same assay, conditions: versus ligand-free 15-PGDH, pH 8.0
`NC(=O)c1ccc[n+]([C@@H]2O[C@H](COP(=O)([O-])OP(=O)(O)OC[C@H]3O[C@@H](n4cnc5c(N)ncnc54)[C@H](O)[C@@H]3O)[C@@H](O)[C@H]2O)c1` [NAD^+] was tested, and the “increase of stability by cofactor” value was “more than 4 °C”.
